Data on 16 compounds can be found in patent publication US11180504B2 (ORCHID PHARMA LTD., priority 2016, dated 2021).

In experiment [1] the test system is carbapenem sensitive Pseudomonas aeruginosa. Description: MIC by broth micro-dilution (CLSI), carbapenem sensitive P. aeruginosa. It counts as cell-based. The settings on record: Pseudomonas aeruginosa, ATCC27853, Meropenem susceptible P. aeruginosa ATCC27853; read-out: MIC. In general terms: Dilution methods test growth across graded concentrations, often in twofold steps.

In experiment [2] the test system is carbapenemase producing K. pneumoniae. Briefly: MIC by broth micro-dilution (CLSI), carbapenemase producing K. pneumoniae. It counts as cell-based, Klebsiella pneumoniae. To be noted: Klebsiella pneumoniae, ATCCBAA1705, KPC-2 K. pneumoniae ATCC BAA-1705; read-out: MIC.
For experiment [3], the system named is methicillin-sensitive Staphylococcus aureus. Description: MIC by broth micro-dilution (CLSI), methicillin-sensitive S. aureus. It counts as cell-based. To be noted: Staphylococcus aureus, ATCC 29213 / MSSA, MSSA S. aureus ATCC29213; read-out: MIC.
In experiment [4] the test system is carbapenem sensitive Escherichia coli. Description: MIC by broth micro-dilution (CLSI), carbapenem sensitive E. coli. It counts as cell-based. To be noted: Escherichia coli, ATCC25922, ESBL −ve E. coli ATCC25922; read-out: MIC.

≈ marks a conversion by molar mass, not a printed value.

As to `C[C@@H](NC(=O)Cn1cnnn1)[C@H]1C(=O)N2C(C(=O)O)=C(S[C@@H]3CN[C@H](C(=O)N4CCN(C(=O)CN)CC4)C3)[C@H](C)[C@H]12` [Example 395, (4R,5S,6R)-6-((R)-1-(2-(1H-tetrazol-1-yl)acetamido)ethyl)-3-((3S,5S)-5-(4-(2-aminoacetyl)piperazine-1-carbonyl)pyrrolidin-3-ylthio)-4-methyl-7-oxo-1-azabicyclo[3.2.0]hept-2-ene-2-carboxylic acid], the MIC stood at 1 µg/mL (≈ 1.69 µM) in experiment [1], 1 µg/mL (≈ 1.69 µM) in experiment [2], 2 µg/mL (≈ 3.39 µM) in experiment [3] and 0.125 µg/mL (≈ 0.212 µM) in experiment [4].

In the case of `C[C@@H](NC(=O)Cn1nnnc1-c1cccs1)[C@H]1C(=O)N2C(C(=O)O)=C(S[C@@H]3CN[C@H](C(=O)N4CC[C@@H](N)C4)C3)[C@H](C)[C@H]12` [Example 358, (4R,5S,6R)-3-((3S,5S)-5-((R)-3-aminopyrrolidine-1-carbonyl)pyrrolidin-3-ylthio)-4-methyl-7-oxo-6-((R)-1-(2-(5-(thiophen-2-yl)-1H-tetrazol-1-yl)acetamido)ethyl)-1-azabicyclo[3.2.0]hept-2-ene-2-carboxylic acid], the MIC in experiment [1] is more than 128 µg/mL; in experiment [2] it was 32 µg/mL (≈ 52 µM); in experiment [3] it was 1 µg/mL (≈ 1.62 µM); in experiment [4], 1 µg/mL (≈ 1.62 µM).

For `C[C@@H](NC(=O)C(N)C(F)(F)F)[C@H]1C(=O)N2C(C(=O)O)=C(S[C@@H]3CN[C@H](C(=O)N(C)C)C3)[C@H](C)[C@H]12` (stereo partly shown) [Example 388], the MIC in experiment [1] was more than 128 µg/mL; in experiment [2], 8 µg/mL (≈ 15.8 µM); in experiment [3], 8 µg/mL (≈ 15.8 µM); in experiment [4], 2 µg/mL (≈ 3.94 µM).

Take `C[C@@H](NC(=O)Cn1nnnc1N)[C@H]1C(=O)N2C(C(=O)O)=C(S[C@@H]3CN[C@H](C(=O)N(C)C)C3)[C@H](C)[C@H]12` [Example 392, (4R,5S,6R)-6-((R)-1-(2-(5-amino-1H-tetrazol-1-yl)acetamido)ethyl)-3-((3S,5S)-5-(dimethylcarbamoyl)pyrrolidin-3-ylthio)-4-methyl-7-oxo-1-azabicyclo[3.2.0]hept-2-ene-2-carboxylic acid]: the MIC in experiment [1] stood at 64 µg/mL (≈ 126 µM); in experiment [2], 4 µg/mL (≈ 7.88 µM); in experiment [3] it was 4 µg/mL (≈ 7.88 µM); in experiment [4], 1 µg/mL (≈ 1.97 µM).

In the case of `C[C@@H](NC(=O)Cn1cnnn1)[C@H]1C(=O)N2C(C(=O)O)=C(S[C@@H]3CN[C@H](C(=O)N4CC5(CCNC5)C4)C3)[C@H](C)[C@H]12` [Example 501, (4R,5S,6R)-6-((R)-1-(2-(1H-tetrazol-1-yl)acetamido)ethyl)-3-((3S,5S)-5-(2,6-diazaspiro[3,4]octane-2-carbonyl)pyrrolidin-3-ylthio)-4-methyl-7-oxo-1-azabicyclo[3.2.0]hept-2-ene-2-carboxylic acid], the MIC in experiment [1] worked out at 1 µg/mL (≈ 1.79 µM); in experiment [2] it was 1 µg/mL (≈ 1.79 µM); in experiment [3], 4 µg/mL (≈ 7.15 µM); in experiment [4], 0.25 µg/mL (≈ 0.447 µM).

Consider `C[C@@H](NC(=O)Cn1cncn1)[C@H]1C(=O)N2C(C(=O)O)=C(S[C@@H]3CN[C@H](C(=O)N(C)C)C3)[C@H](C)[C@H]12` [Example 300, (4R,5S,6R)-6-((R) - 1-(2-(1H-1,2,4-triazol-1-yl)acetamido)ethyl)-3-((3S,5S)-5-(dimethylcarbamoyl)pyrrolidin-3-ylthio)-4-methyl-7-oxo-1-azabicyclo[3.2.0]hept-2-ene-2-carboxylic acid], for which the MIC is 128 µg/mL (≈ 260 µM) in experiment [1], 4 µg/mL (≈ 8.14 µM) in experiment [2], 16 µg/mL (≈ 32.5 µM) in experiment [3] and 1 µg/mL (≈ 2.03 µM) in experiment [4].

As to `C[C@@H](NC(=O)Cn1cnnn1)[C@H]1C(=O)N2C(C(=O)O)=C(S[C@@H]3CN[C@H](C(=O)N4CCC5NCCCC5C4)C3)[C@H](C)[C@H]12` (single isomer, unassigned) [Example 482], the MIC in experiment [1] was determined as 4 µg/mL (≈ 6.81 µM); in experiment [2], 4 µg/mL (≈ 6.81 µM); in experiment [3], 4 µg/mL (≈ 6.81 µM); in experiment [4] it was 0.25 µg/mL (≈ 0.425 µM).

`C[C@@H](NC(=O)Cn1cnnn1)[C@H]1C(=O)N2C(C(=O)O)=C(S[C@@H]3CN[C@H](C(=O)N4CCN(C(=O)CCN)CC4)C3)[C@H](C)[C@H]12` [Example 419, (4R,5S,6R)-6-((R)-1-(2-(1H-tetrazol-1-yl)acetamido)ethyl)-3-((3S,5S)-5-(4-(3-aminopropanoyl)piperazine-1-carbonyl)pyrrolidin-3-ylthio)-4-methyl-7-oxo-1-azabicyclo[3.2.0]hept-2-ene-2-carboxylic acid]: the MIC came to 1 µg/mL (≈ 1.65 µM) in experiment [1], 1 µg/mL (≈ 1.65 µM) in experiment [2], 4 µg/mL (≈ 6.61 µM) in experiment [3] and 0.25 µg/mL (≈ 0.413 µM) in experiment [4].

Regarding `C[C@@H](NC(=O)Cn1cnnn1)[C@H]1C(=O)N2C(C(=O)O)=C(S[C@@H]3CN[C@H](C(=O)N4CCN(C[C@@H](O)CN)CC4)C3)[C@H](C)[C@H]12` [Example 442, (4R,5S,6R)-6-((R)-1-(2-(1H-tetrazol-1-yl)acetamido)ethyl)-3-((3S,5S)-5-(4-((S)-3-amino-2-hydroxypropyl)piperazioe-1-carbonyl)pyrrolidin-3-ylthio)-4-methyl-7-oxo-1-azabicyclo[3.2.0]hept-2-ene-2-carboxylic acid], the MIC in experiment [1] is 0.5 µg/mL (≈ 0.824 µM); in experiment [2] it was 1 µg/mL (≈ 1.65 µM); in experiment [3], 2 µg/mL (≈ 3.3 µM); in experiment [4], 0.125 µg/mL (≈ 0.206 µM).

Take `C[C@@H](NC(=O)Cn1cnnn1)[C@H]1C(=O)N2C(C(=O)O)=C(S[C@@H]3CN[C@H](C(=O)N4CCN(C(=O)CNC(=N)N)CC4)C3)[C@H](C)[C@H]12` [Example 446, (4R,5S,6R)-6-((R)-1-(2-(1H-tetrazol-1-yl)acetamido)ethyl)-3-((3S,5S)-5-(4-(2-guanidinoacetyl)piperazine-1-carbonyl)pyrrolidin-3-ylthio)-4-methyl-7-oxo-1-azabicyclo[3.2.0]hept-2-ene-2-carboxylic acid]: the MIC in experiment [1] worked out at 4 µg/mL (≈ 6.32 µM); in experiment [2], 1 µg/mL (≈ 1.58 µM); in experiment [3], 2 µg/mL (≈ 3.16 µM); in experiment [4], 0.25 µg/mL (≈ 0.395 µM).

`C[C@@H](NC(=O)Cn1cnnn1)[C@H]1C(=O)N2C(C(=O)O)=C(S[C@@H]3CN[C@H](C(=O)N4C[C@H]5CNC[C@@]5(CO)C4)C3)[C@H](C)[C@H]12` [Example 524, (4R,5S,6R)-6-((R)-1-(2-(1H-tetrazol-1-yl)acetamido)ethyl)-3-((3S,5S)-5-((3aR,6aR)-3a-(hydroxymethyl)octahydropyrrolo[3,4-c]pyrrole-2-carbonyl)pyrrolidin-3-ylthio)-4-methyl-7-oxo-1-azabicyclo[3.2.0]hept-2-ene-2-carboxylic acid]: the MIC worked out at 1 µg/mL (≈ 1.7 µM) in experiment [1], 2 µg/mL (≈ 3.39 µM) in experiment [2], 4 µg/mL (≈ 6.78 µM) in experiment [3] and 0.25 µg/mL (≈ 0.424 µM) in experiment [4].

In the case of `C[C@@H](NC(=O)Cn1cnnn1)[C@H]1C(=O)N2C(C(=O)O)=C(S[C@@H]3CN[C@H](C(=O)N4CCCC45CCNCC5)C3)[C@H](C)[C@H]12` [Example 477, (4R,5S,6R)-3-((3S,5S)-5-(1,8-diazaspiro[4.5]decane-1-carbonyl)pyrrolidin-3-ylthio)-6-((R)-1-(2-(1H-tetrazol-1-yl)acetamido)ethyl)-4-methyl-7-oxo-1-azabicyclo[3.2.0]hept-2-ene-2-carboxylic acid], the MIC stood at 64 µg/mL (≈ 109 µM) in experiment [1], 2 µg/mL (≈ 3.4 µM) in experiment [2], 2 µg/mL (≈ 3.4 µM) in experiment [3] and 0.5 µg/mL (≈ 0.851 µM) in experiment [4].

As for `C[C@@H](NC(=O)Cn1cnnn1)[C@H]1C(=O)N2C(C(=O)O)=C(S[C@@H]3CN[C@H](C(=O)N4CC[C@@H](NC(=N)N)C4)C3)[C@H](C)[C@H]12` [Example 399, (4R,5S,6R)-6-((R)-1-(2-(1H-tetrazol-1-yl)acetamido)ethyl)-3-((3S,5S)-5-((R)-3-guanidinopyrrolidine-1-carbonyl)pyrrolidin-3-ylthio)-4-methyl-7-oxo-1-azabicyclo[3.2.0]hept-2-ene-2-carboxylic acid], the MIC amounted to 8 µg/mL (≈ 13.9 µM) in experiment [1], 2 µg/mL (≈ 3.47 µM) in experiment [2], 2 µg/mL (≈ 3.47 µM) in experiment [3] and 0.125 µg/mL (≈ 0.217 µM) in experiment [4].

On to `C[C@@H](NC(=O)Cn1cnnn1)[C@H]1C(=O)N2C(C(=O)O)=C(S[C@@H]3CN[C@H](C(=O)N4CCC5(CC4)CC(F)(F)CN5)C3)[C@H](C)[C@H]12` [Example 351, (4R,5S,6R)-6-((R)-1-(2-(1H-tetrazol-1-yl)acetamido)ethyl)-3-((3S,5S)-5-(3,3-difluoro-1,8-diazaspiro[4.5]decane-8-carbonyl)pyrrolidin-3-ylthio)-4-methyl-7-oxo-1-azabicyclo[3.2.0]hept-2-ene-2-carboxylic acid], for which the MIC in experiment [1] was more than 128 µg/mL; in experiment [2] it was 4 µg/mL (≈ 6.41 µM); in experiment [3], 16 µg/mL (≈ 25.7 µM); in experiment [4], 1 µg/mL (≈ 1.6 µM).

For the compound `C[C@@H](NC(=O)Cn1cnnn1)[C@H]1C(=O)N2C(C(=O)O)=C(S[C@@H]3CN[C@H](C(=O)N4CCN(C5CNC5)CC4)C3)[C@H](C)[C@H]12` [Example 408, (4R,5S,6R)-6-((R)-1-(2-(1H-tetrazol-1-yl)acetamido)ethyl)-3-((3S,5S)-5-(4-(azetidin-3-yl)piperazine-1-carbonyl)pyrrolidin-3-ylthio)-4-methyl-7-oxo-1-azabicyclo[3.2.0]hept-2-ene-2-carboxylic acid], the minimal inhibitory concentration (MIC) in experiment [1] is 2 µg/mL (≈ 3.4 µM); in experiment [2] it was 2 µg/mL (≈ 3.4 µM); in experiment [3], 4 µg/mL (≈ 6.79 µM); in experiment [4] it was 1 µg/mL (≈ 1.7 µM).

Regarding `C[C@@H](NC(=O)Cn1nnc(C(F)(F)F)n1)[C@H]1C(=O)N2C(C(=O)O)=C(S[C@@H]3CN[C@H](C(=O)N(C)C)C3)[C@H](C)[C@H]12` [Example 335, (4R,5S,4R)-3-((3S,5S)-5-(dimethylcarbamoyl)pyrrolidin-3-ylthio)-4-methyl-7-oxo-6-((R) - 1-(2-(5-(trifluoromethyl)-2H-tetrazol-2-yl)acetamido)ethyl) - 1-azabicyclo[3.2.0]hept-2-ene-2-carboxylic acid], the MIC in experiment [1] is more than 128 µg/mL; in experiment [2], 64 µg/mL (≈ 114 µM); in experiment [3], 4 µg/mL (≈ 7.14 µM); in experiment [4], 1 µg/mL (≈ 1.78 µM).

The term MIC denotes the least concentration at which growth counts as inhibited.
